A short description of data set [1]: Half-life of the parent prodrug in porcine esterase solution. To be noted: pig. Format: ADME, Sus scrofa.
Data set [2] in a line: Half-life of the parent prodrug in plasma. In kind it is ADME, cell-free. The note with it: human.
Data set [3] is described as follows: Half-life in human plasma. Format: ADME, cell-free.

`COc1ccc(NC(=O)CC(C)(C)c2c(C)cc(C)cc2OC(C)=O)cc1`: the T1/2 in data set [1] is 11.9 min; in data set [2] it was 53.7 min.
With `COc1ccc(NC(=O)CC(C)(C)c2c(OC)cc(OC)cc2OC(C)=O)cc1`, in data set [3], the half-life amounted to 52 min.

What is called half-life is the time needed for the level to fall by half in the phase considered. Low readings indicate fast loss, high ones slow loss.

The record behind these values is ChEMBL document CHEMBL1134989, “Synthesis and stability study of a modified phenylpropionic acid linker-based esterase-sensitive prodrug” (Bioorg Med Chem Lett, 2002).
